Measured values: patent US4940716A, “2-amino-tetrahydro-isoquinolene derivatives and a process for the preparation thereof and pharmaceutical compositions containing same” (Chinoin Gyogyszer es Vegyeszeti Termekek Gyara Rt, priority 1987, dated 1990)

Experiment: Salidiuretic screening test in rats (Lipschitz method modified by Kagawa and Kalm), 5 mg/kg p.o.
Assay type: in vivo, rats (LATI CFY strain, male)
Conditions: for K secretion, % of simultaneously measured control / Na secretion, % of simultaneously measured control / Water secretion, % of simultaneously measured control / secreted Na/K: single oral dose 5 mg/kg, rat; for Na/K ratio (in words) / secretion of urine amount and alkali metal ion: 5 mg/kg per os, rats; for secretion of urine amount and alkali metal ion: compared with dihydrochlorothiazide and furosemid
Protocol: Significant diuretic compounds containing an isoquinoline ring system have not been disclosed and therefore it is surprising that the compounds of the Formula (I) show a significant diuretic and saluretic activity. In a screening test carried out in rats (administered per os 5 mg/kg) the compounds according to the invention were compared with dihydrochlorothiazide and furosemid. […] Screen tests were carried out in masculine rats belonging to […] strain weighing at an average 240 g. The animals obtained standard rat nourishment. 16 hours before the experiment the animals were deprived of nourishment but the liquid uptake was not restricted. In order to show diuretic activity the procedure of Lipschitznek modified by Kagawa and Kalm was used. (Arch. Int. Pharmacodyn. 137, 241-249 (1962). The animals were placed into a metabolism cage. The urine collection was carried out in 0-6 and 0-24 hour periods. The control animals were administered 25 cm^3 /kg physiological salt solution through a gastric tube. The test substance was administered to the animals through a gastric tube at a dose of 5 mg/kg in physiological salt solution of an amount corresponding to the amount of physiological salt solution given to the control animals. After 6 hours the animals were administered the same volume of physiological saline solution as the volume excreted with 0-6 hours through a gastric tube. The amount of secreted urine between 0 to 6 and 0 to 24 hours was measured and calculated together with the concentration of sodium and potassium and the Na/K ratio of the urine secreted within a given period. Simultaneously with each test control groups treated with physiological salt solution and hypothiazide were used. Effect of a single oral dose of 5 mg/kg of the compouns on the secretion of water, sodium and potassium within 0-6 and 0-24 hours in the % of the simultaneously measured control values and on the secreted Na/K.

SMILES	K secretion, % of simultaneously measured control (0-6 h) [%]	Na secretion, % of simultaneously measured control (0-6 h) [%]	Water secretion, % of simultaneously measured control (0-6 h) [%]	secreted Na/K (0-6 h, control 1.81)	K secretion, % of simultaneously measured control (0-24 h) [%]	Na secretion, % of simultaneously measured control (0-24 h) [%]	Water secretion, % of simultaneously measured control (0-24 h) [%]	secreted Na/K (0-24 h, control 2.45)	Na/K ratio (in words)	secretion of urine amount and alkali metal ion
NS(=O)(=O)c1cc(C(=O)NN2CCc3ccccc3C2)ccc1Cl [Example 1, 2-[(3'-sulfamoyl-4'-chloro)-benzoyl]-amino-1,2,3,4-tetrahydro-isoquinoline]	145	260	216	9.09	82	152	148	5.94	favorable	particularly advantageous
CC1c2ccccc2CCN1NC(=O)c1ccc(Cl)c(S(N)(=O)=O)c1 (stereo not drawn) [Example 2, 1-methyl-2-[(3'-sulfamoyl-4'-chloro)-benzoyl]-amino-1,2,3,4-tetrahydro-isoquinoline]	170	279	233	7.56	100	151	154	5.38	favorable	particularly advantageous
COc1cc2c(cc1OC)C(C)N(NC(=O)c1ccc(Cl)c(S(N)(=O)=O)c1)CC2 (stereo not drawn) [Example 3, 1-methyl-2-[(3'-sulfamoyl-4'-chloro-benzoyl)-amino]-6,7-dimethoxy-1,2,3,4-tetrahydro-isoquinoline-monohydrate]	104	186	147	4.74	84	121	112	3.99		
NS(=O)(=O)c1cc2c(cc1Cl)NCNS2(=O)=O [Hypothiazide, reference compound]	117	187	159	3.90	109	123	119	3.50		
